Results as given in ChEMBL document CHEMBL3244338, “Antineoplastic agents. Structure-activity relationship study of bis(substituted aminoalkylamino)anthraquinones” (J Med Chem, 1978).
Calls of active or inactive are those of the source. The calls are words filed in the database; no cut-off is given here.

Experiments:
P388 [1] = assay: Antitumor activity against mouse P388 cells allografted in BDF1 mouse assessed as increase in survival time at 2 mg/kg administered 24 hrs post challenge relative to control; type: functional
P388 [2] = assay: Antitumor activity against mouse P388 cells allografted in BDF1 mouse assessed as increase in survival time at 1 mg/kg administered 24 hrs post challenge relative to control; type: functional
P388 [3] = assay: Antitumor activity against mouse P388 cells allografted in BDF1 mouse assessed as increase in survival time at 0.5 mg/kg administered 24 hrs post challenge relative to control; type: functional
P388 [4] = assay: Antitumor activity against mouse P388 cells allografted in BDF1 mouse assessed as increase in survival time at 0.25 mg/kg administered 24 hrs post challenge relative to control; type: functional
P388 [5] = assay: Antitumor activity against mouse P388 cells allografted in BDF1 mouse assessed as increase in survival time at 0.12 mg/kg administered 24 hrs post challenge relative to control; type: functional
P388 [6] = assay: Antitumor activity against mouse P388 cells allografted in BDF1 mouse assessed as increase in survival time at 0.06 mg/kg administered 24 hrs post challenge relative to control; type: functional
P388 [7] = assay: Antitumor activity against mouse P388 cells allografted in BDF1 mouse assessed as mouse survival at 2 mg/kg administered 24 hrs post challenge relative to control; type: functional, organism-based; design: dose 2 mg/kg
P388 [8] = assay: Antitumor activity against mouse P388 cells allografted in BDF1 mouse assessed as mouse survival at 0.5 mg/kg administered 24 hrs post challenge relative to control; type: functional, organism-based; design: dose 0.5 mg/kg
P388 [9] = assay: Antitumor activity against mouse P388 cells allografted in BDF1 mouse assessed as mouse survival at 0.25 mg/kg administered 24 hrs post challenge relative to control; type: functional, organism-based; design: dose 0.25 mg/kg
P388 [10] = assay: Antitumor activity against mouse P388 cells allografted in BDF1 mouse assessed as mouse survival at 0.12 mg/kg administered 24 hrs post challenge relative to control; type: functional, organism-based; design: dose 0.12 mg/kg
P388 [11] = assay: Antitumor activity against mouse P388 cells allografted in BDF1 mouse assessed as mouse survival at 0.06 mg/kg administered 24 hrs post challenge relative to control; type: functional, organism-based; design: dose 0.06 mg/kg
Mus musculus [12] = assay: Toxicity in mouse P388 cells allografted BDF1 mouse assessed as body weight difference at 2 mg/kg administered 24 hrs post challenge relative to control; type: organism-based; design: dose 2 mg/kg; details: in vivo
Mus musculus [13] = assay: Toxicity in mouse P388 cells allografted BDF1 mouse assessed as body weight difference at 1 mg/kg administered 24 hrs post challenge relative to control; type: organism-based; design: dose 1 mg/kg; details: in vivo
Mus musculus [14] = assay: Toxicity in mouse P388 cells allografted BDF1 mouse assessed as body weight difference at 0.5 mg/kg administered 24 hrs post challenge relative to control; type: organism-based; design: dose 0.5 mg/kg; details: in vivo
Mus musculus [15] = assay: Toxicity in mouse P388 cells allografted BDF1 mouse assessed as body weight difference at 0.25 mg/kg administered 24 hrs post challenge relative to control; type: organism-based; design: dose 0.25 mg/kg; details: in vivo
Mus musculus [16] = assay: Toxicity in mouse P388 cells allografted BDF1 mouse assessed as body weight difference at 0.12 mg/kg administered 24 hrs post challenge relative to control; type: organism-based; design: dose 0.12 mg/kg; details: in vivo
Mus musculus [17] = assay: Toxicity in mouse P388 cells allografted BDF1 mouse assessed as body weight difference at 0.06 mg/kg administered 24 hrs post challenge relative to control; type: organism-based; design: dose 0.06 mg/kg; details: in vivo
B16 [18] = assay: Antitumor activity against mouse B16 cells allografted in BDF1 mouse assessed as increase in survival time at 1 mg/kg administered 24 hrs post challenge relative to control; type: functional
B16 [19] = assay: Antitumor activity against mouse B16 cells allografted in BDF1 mouse assessed as increase in survival time at 0.5 mg/kg administered 24 hrs post challenge relative to control; type: functional

O=C1c2c(O)ccc(O)c2C(=O)c2c(NCCNCCO)ccc(NCCNCCO)c21 [MITOXANTRONE]
T/C (P388 [1]): 280%
T/C (P388 [2]): 277%
T/C (P388 [3]): 299%
T/C (P388 [4]): 280%
T/C (P388 [5]): 200%
T/C (P388 [6]): 208%
Activity (P388 [7]): Active
Activity (P388 [8]): Active
Activity (P388 [9]): Active
Activity (P388 [10]): Active
Activity (P388 [11]): Active
Activity (Mus musculus [12]): -0.6 g
Activity (Mus musculus [13]): -0.6 g
Activity (Mus musculus [14]): -2 g
Activity (Mus musculus [15]): -2.3 g
Activity (Mus musculus [16]): -1.4 g
Activity (Mus musculus [17]): -1.7 g
T/C (B16 [18]): 503%
T/C (B16 [19]): 466%
